Among the data in the METLIN SMRT retention time set (Domingo-Almenara et al. 2019) are RP-LC retention time values, retold here.

The structures appear in SMILES notation.

The nature of this series: gradient 5% acetonitrile 3 min, to 50% in 2 min, to 85% in 15 min, held 3 min, 100 µL/min. As to conditions: column: Zorbax Extend-C18 2.1 x 50 mm; eluents: water / acetonitrile, 0.1% formic acid. The method, boiled down:
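The system's dead and dwell volumes were 40 μL and 900 μL, with a Zorbax Extend-C18 column (2.1 × 50 mm, 1.8 μm) run at 100 μL/min in water and acetonitrile containing 0.1% formic acid each. Pure standards were analyzed in mixtures of ~100 molecules by HPLC–quadrupole time-of-flight mass spectrometry in positive and negative ionization mode. Retention time was assigned from computationally picked, manually inspected adduct peaks.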
For `Cc1ccc2oc(CN3CCN(C(=O)Nc4ccccc4)CC3)nc2c1`, the RP-LC retention time came out at 678 s. In the case of `Cc1[nH]c(=O)[nH]c(=O)c1CC(=O)NCCc1cccs1` it was 574 s. As for `COc1ccccc1-c1nc(Cn2cccc(S(=O)(=O)N3CCCC3)c2=O)no1`, the figure is 736 s; as for `CCOCCCNC(=O)CN1C(=O)CCn2nc(-c3cn(C)c4ccccc34)cc21`, 714 s. In the case of `CCc1nc2onc(C)c2c(=O)n1CC(=O)NCc1ccc(F)cc1` it was 783 s.

`O=C(Nc1ccc2ccccc2c1)N1CCN(c2ncc(C(F)(F)F)cc2Cl)CC1` yielded an RP-LC retention time of 1110 s. `Clc1ccc(Cl)c(-c2ccc(CNCc3ccncc3)o2)c1` yielded an RP-LC retention time of 664 s.

`CCc1ccc(-c2nc(-c3ccc(-n4cccn4)nc3)no2)cc1` showed an RP-LC retention time of 1470 s. In the case of `CCc1nc(OCC(=O)Nc2ccc(Cl)c(Cl)c2)c2ccccc2n1` it was 958 s; in that of `CN(C)S(=O)(=O)c1ccc(-c2nnc(C(=O)NCc3ccccc3Cl)o2)cc1`, 894 s; in that of `O=C(NCC1CC1)c1c(O)c2cccnc2n(Cc2ccccc2)c1=O`, 1310 s. In the case of `COc1ccc(N2CCN(c3cc(SCC(=O)Nc4cccc(OC)c4)ncn3)CC2)cc1` it was 894 s.

Regarding `CCOc1ccc(N2CCn3c2nn(Cc2ccc(C(=O)OC)o2)c(=O)c3=O)cc1`, the RP-LC retention time was found to be 731 s. `COCCNc1c(-c2ccccc2)nc2sc(C(=O)N3CCN(C)CC3)c(C)n12` displayed an RP-LC retention time of 601 s. In the case of `CC1=NOC(C)(CNS(=O)(=O)c2ccc(F)cc2)C1` (stereo not drawn) it was 728 s. In the case of `Cc1cccc(-c2nc(C3CCN(S(=O)(=O)c4cc(C)ccc4C)CC3)no2)c1` it was 1320 s.

Turning to `COc1ccc(NC(=O)c2cnc(-c3ccc(F)cc3)nc2-c2ccncc2)cc1`, the RP-LC retention time was found to be 856 s. As for `COc1ccc(NC(=O)Cn2nc3nc(N4CCCC4)ccn3c2=O)cc1OC`, the figure is 617 s; as for `CCC(C)NC(=O)c1ccc(-c2csc(C)n2)cc1` (stereo not drawn), 799 s. In the case of `O=C(C1=CN(c2cccc(F)c2)c2cc(F)ccc2S1(=O)=O)N1CCOCC1` it was 755 s. In the case of `Cc1ccc(S(=O)(=O)c2nc(S(C)(=O)=O)sc2NCc2ccccn2)cc1` it was 763 s; in that of `COc1cc(NC(=O)C2CCCN(c3nc4ccccc4nc3C(F)(F)F)C2)cc(OC)c1` (stereo not drawn), 1180 s. On to `Cc1ccc(S(=O)(=O)c2cnc3ccc(F)cc3c2N2CCOCC2)cc1C`, for which the RP-LC retention time stood at 892 s. In the case of `CCOc1ccccc1CNC(=O)CN1C(=O)CSc2cccn2-c2ccccc21` it was 962 s.

`Cc1ccccc1CC(=O)Nc1ccc2c(c1)Sc1ncccc1C(=O)N2C` gave an RP-LC retention time of 806 s. As for `O=C(c1cccs1)N1CCN(c2cc(-c3ccccc3)[nH]n2)CC1`, the figure is 734 s; as for `CCS(=O)(=O)N1CCCN(C2=NS(=O)(=O)C(c3ccccc3)=C2C)CC1`, 751 s; as for `Cc1occc1C(=O)Nc1nc(-c2ccc3ccccc3c2)cs1`, 1170 s.

For `COc1ccccc1C(=O)NCCc1nc2cccnc2n1C(C)C`, the RP-LC retention time was 718 s. As for `CCCCn1cnc2c(-c3ccccc3)cn(CC(=O)Nc3ccc(Cl)cc3)c2c1=O`, the figure is 1120 s. In the case of `O=S(=O)(c1cccc2cccnc12)N1CCCn2nc(-c3cccs3)cc2C1` it was 900 s; in that of `CCOc1ccc2nc(NC(=O)Cn3nc(C(=O)N4CCCCC4)c4ccccc43)sc2c1`, 944 s. In the case of `Nc1nnc(SCc2nnc(-c3ccc4c(c3)OCO4)o2)s1` it was 630 s.
